Measurements published in patent publication US20170050957A1, “4-AMINO-6-(HETEROCYCLIC)PICOLINATES AND 6-AMINO-2-(HETEROCYCLIC)PYRIMIDINE-4-CARBOXYLATES AND THEIR USE AS HERBICIDES” (Dow AgroSciences LLC, priority 2013, published 2017).
Read-outs that look alike come from different tables or passages of the source.

Experiments:
[1] = system: Key Broadleaf Weed and Crop Species; test: Post-emergent Test II herbicidal activity (Table 15); type: in vivo; conditions: post-emergence, 336 h, 14 d; for pest or weed control at 35 g/ha: 35 g ai/ha; for pest or weed control at 70 g/ha: 70 g ai/ha; for pest or weed control at 140 g/ha: 140 g ai/ha; for pest or weed control at 280 g/ha: 280 g ai/ha
Method in brief: (§1)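 Plants at first-second true leaf stage, grown 7-21 d in greenhouse (~15 h photoperiod, 23-29 °C day), were track-sprayed at 187 L/ha with compound in acetone/DMSO/water/isopropanol/crop oil/Triton X-155 at a high rate plus 1/2× to 1/16× dilutions. Injury scored visually after 14 d versus untreated plants, 0 (none) to 100% (complete kill).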

[2] = system: Key Grass and Sedge Weeds as well as Grass Crops; test: Post-emergent Test II herbicidal activity (Table 16); type: in vivo; conditions: post-emergence, 336 h, 14 days after application; for pest or weed control at 35 g/ha: 35 g ai/ha; for pest or weed control at 70 g/ha: 70 g ai/ha; for pest or weed control at 140 g/ha: 140 g ai/ha; for pest or weed control at 280 g/ha: 280 g ai/ha
Method in brief: as §1

[3] = Abutilon theophrasti, velvetleaf (Abutilon theophrasti), read-out: Visual Growth Reduction (%) 14 Days After Application, ABUTH
[4] = Amaranthus retroflexus, redroot pigweed (Amaranthus retroflexus), read-out: Visual Growth Reduction (%) 14 Days After Application, AMARE
[5] = Brassica napus, oilseed rape, canola (Brassica napus), read-out: Visual Growth Reduction (%) 14 Days After Application, BRSNN
[6] = Chenopodium album, lambsquarters (Chenopodium album), read-out: Visual Growth Reduction (%) 14 Days After Application, CHEAL
[7] = Euphorbia heterophylla, wild poinsettia (Euphorbia heterophylla), read-out: Visual Growth Reduction (%) 14 Days After Application, EPHHL
[8] = Helianthus annuus, sunflower (Helianthus annuus), read-out: Visual Growth Reduction (%) 14 Days After Application, HELAN
[9] = Cyperus esculentus, yellow nutsedge (Cyperus esculentus), read-out: Visual Growth Reduction (%) 14 Days After Application CYPES
[10] = Echinochloa crus-galli, barnyardgrass (Echinochloa crus-galli), read-out: Visual Growth Reduction (%) 14 Days After Application ECHCG
[11] = Oryza sativa, rice (Oryza sativa), read-out: Visual Growth Reduction (%) 14 Days After Application ORYSA
[12] = Setaria faberi, giant foxtail (Setaria faberi), read-out: Visual Growth Reduction (%) 14 Days After Application SETFA
[13] = Triticum aestivum, wheat, spring (Triticum aestivum), read-out: Visual Growth Reduction (%) 14 Days After Application TRZAS
[14] = Zea mays, maize, corn (Zea mays), read-out: Visual Growth Reduction (%) 14 Days After Application ZEAMX

## COC(=O)c1nc(-c2cccc3ccsc23)cc(N)c1Cl [Compound 3.27]
[1]; [3]
  pest or weed control at 35 g/ha: 0 to 29%
  pest or weed control at 70 g/ha: 0 to 29%
  pest or weed control at 140 g/ha: 45 to 59%
  pest or weed control at 280 g/ha: 75 to 84%
[1]; [4]
  pest or weed control at 35 g/ha: 85 to 94%
  pest or weed control at 70 g/ha: 95 to 100%
  pest or weed control at 140 g/ha: 95 to 100%
  pest or weed control at 280 g/ha: 95 to 100%
[1]; [5]
  pest or weed control at 35 g/ha: 45 to 59%
  pest or weed control at 70 g/ha: 60 to 74%
  pest or weed control at 140 g/ha: 60 to 74%
  pest or weed control at 280 g/ha: 85 to 94%
[1]; [6]
  pest or weed control at 35 g/ha: 75 to 84%
  pest or weed control at 70 g/ha: 85 to 94%
  pest or weed control at 140 g/ha: 95 to 100%
  pest or weed control at 280 g/ha: 95 to 100%
[1]; [7]
  pest or weed control at 35 g/ha: 0 to 29%
  pest or weed control at 70 g/ha: 0 to 29%
  pest or weed control at 140 g/ha: 0 to 29%
  pest or weed control at 280 g/ha: 0 to 29%
[1]; [8]
  pest or weed control at 35 g/ha: 45 to 59%
  pest or weed control at 70 g/ha: 60 to 74%
  pest or weed control at 140 g/ha: 75 to 84%
  pest or weed control at 280 g/ha: 85 to 94%
[2]; [9]
  pest or weed control at 35 g/ha: 0 to 29%
  pest or weed control at 70 g/ha: 0 to 29%
  pest or weed control at 140 g/ha: 0 to 29%
  pest or weed control at 280 g/ha: 0 to 29%
[2]; [10]
  pest or weed control at 35 g/ha: 0 to 29%
  pest or weed control at 70 g/ha: 0 to 29%
  pest or weed control at 140 g/ha: 0 to 29%
  pest or weed control at 280 g/ha: 0 to 29%
[2]; [11]
  pest or weed control at 35 g/ha: 0 to 29%
  pest or weed control at 70 g/ha: 0 to 29%
  pest or weed control at 140 g/ha: 0 to 29%
  pest or weed control at 280 g/ha: 0 to 29%
[2]; [12]
  pest or weed control at 35 g/ha: 0 to 29%
  pest or weed control at 70 g/ha: 0 to 29%
  pest or weed control at 140 g/ha: 0 to 29%
  pest or weed control at 280 g/ha: 0 to 29%
[2]; [13]
  pest or weed control at 35 g/ha: 0 to 29%
  pest or weed control at 70 g/ha: 0 to 29%
  pest or weed control at 140 g/ha: 0 to 29%
  pest or weed control at 280 g/ha: 0 to 29%
[2]; [14]
  pest or weed control at 35 g/ha: 0 to 29%
  pest or weed control at 70 g/ha: 0 to 29%
  pest or weed control at 140 g/ha: 0 to 29%
  pest or weed control at 280 g/ha: 0 to 29%
